Each compound was assayed on human liver microsomes, metabolic stability half-life (assay: NCATS Human Liver Microsomal (HLM) Stability Profiling). Conditions: higher = more stable; screened at 1 µM (by protocol).
Procedure, shortened: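 Half-life derived from parent loss over 0–60 min (0, 5, 10, 15, 30, 60 min) at 37 °C. Incubations: 0.5 mg/mL microsomes, 1 µM test article, NADPH regeneration, pH 7.4 phosphate; quenched in acetonitrile containing albendazole, analysed by MS.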

SMILES	half-life [min]
COc1cc(N2CCN(C)CC2)ccc1Nc1nccc(-c2cn(C)c3cnccc23)n1	> 120
CC(C)(C)NCc1cc(Nc2ccnc3cc(Cl)ccc23)c2c(c1O)CCCC2	> 120
Clc1cccc(C(c2ccc3nc[nH]c3c2)n2ccnc2)c1 (configuration not stated)	> 120
Cc1cccc(C(=O)O)c1O	> 120
C[C@@H](N)[C@@H](O)c1ccccc1	92.4
CC(C)c1ccc(NC(=O)C(c2ccccc2)N(C)C(=O)Cc2c[nH]c3ccccc23)cc1 (configuration not stated)	7.38
COc1ccncc1C(=O)NC(=O)Nc1ccc(-c2ccccc2)c(C(F)(F)F)c1	> 120
CCN1CCN(C(=O)Cc2cccn2-c2ccc(F)cc2)CC1	114
CCn1c(-c2nonc2N)nc2c(C#CCO)ncc(OCCCN)c21	> 120
C#C[C@]1(OC(C)=O)CC[C@H]2[C@@H]3CCC4=C/C(=N/O)CC[C@@H]4[C@H]3CC[C@@]21CC	6.21
O=C(N/N=C/C1C=CC([N+](=O)[O-])O1)c1ccc(O)cc1 (configuration not stated)	> 120
NC(=O)N1CCC(CC(=O)N2CCC(C3c4ncc(Br)cc4CCc4cc(Cl)cc(Br)c43)CC2)CC1 (configuration not stated)	5.45
COc1ccc(C(=O)Oc2ccc(C(c3c(C)[nH][nH]c3=O)c3c(C)[nH][nH]c3=O)cc2)cc1	1.55
CCN(CC)Cc1ccc(C(=O)N(CCc2ccccc2OC)[C@@H]2CCNC2)cc1	> 120
CNS(=O)(=O)CCc1ccc2[nH]cc(C3CCN(C)CC3)c2c1	> 120
COc1cc(C(=O)NC2CCCNC2)cc(OC)c1OC (configuration not stated)	> 120
O=C1c2ccccc2C(=O)C1C(=O)C(c1ccccc1)c1ccccc1	> 120
O=c1c2cccnc2n(-c2cccc([N+](=O)[O-])c2)c(=O)n1Cc1ccncc1	24.5
CC1(COc2ccc3c(c2)ncn3-c2ccc3cccc(N4CCC(N)CC4)c3n2)COC1	75.4
O=C(N[C@@H](COc1ccc2[nH]c(=O)[nH]c2c1)c1ccccc1)c1cccn(Cc2ccc(F)c(F)c2)c1=O	42.5
NC(=Nc1ccccc1)Nc1ccccc1	> 120

SMILES	half-life [min]
COc1cc(NC(=O)Nc2cccc(CNC(=O)O[C@H]3CCOC3)c2)ccc1-c1cnco1	27.7
Nc1cc(=O)[nH]c(N)n1	99.2
Cc1ncc(CSSCc2cnc(C)c(O)c2CO)c(CO)c1O	> 120
COc1cc(=O)n2c(c1C(=O)NCc1ccc3c(c1)OCO3)CCN(C(=O)c1ccc(C)cc1C)CC2	34.4
CCCN(CCN1CCN(c2ccccc2OC)CC1)C1CCc2ncsc2C1 (configuration not stated)	2.54
CN1c2cc(C(=O)Nc3ccc(C#N)cc3)ccc2C(=O)N2CCCCC21 (configuration not stated)	44.3
CN1C(C)(C)CCCC1(C)C	> 120
C[C@]12CC[C@@H]3c4ccc(O)cc4CC[C@H]3[C@@H]1C[C@@H](O)[C@@H]2O	> 120
CCCCC(=O)OCC(=O)[C@H]1[C@H](C)C[C@H]2[C@@H]3C[C@H](F)C4=CC(=O)C=C[C@]4(C)[C@@]3(F)[C@@H](O)C[C@@]21C	5.18
CN(C)c1cccc(Oc2cnc(Nc3cccc(O)c3)nc2)c1	21.9
Cc1nn2c(c1-c1ccccc1Oc1ccccc1)N(Cc1ccc(C(=O)O)cc1)CCC2	6.19
Cc1ccc(C(=O)c2cc(O)c(O)c([N+](=O)[O-])c2)cc1	34.1
CC(=O)N1CCN(c2ccc(O)cc2)CC1	> 120
Cn1cc(-c2[nH]c3cc(NC(=O)[C@H](N)C4CCCCC4)cc4c3c2C=NNC4=O)cn1	102
O=C(C=Cc1cccc(S(=O)(=O)Nc2ccccc2)c1)NO	> 120
CC(C)(C)C1CCC(CC2=C(O)c3ccccc3C(=O)C2=O)CC1 (configuration not stated)	> 120
CC(C)C(Br)C(=O)NC(N)=O (configuration not stated)	> 120
N#Cc1ccc(C(=O)Nc2ccc(Cl)c(-c3nc4cc(Cl)ccc4o3)c2)c(F)c1	15.4
COc1ccc(NC(=O)Cn2ccn(-c3ccc(C)c(C)c3)c(=O)c2=O)cc1Cl	> 120
CN(C)CCCO[C@H]1C([C@H](O)CO)O[C@@H]2OC(C)(C)O[C@@H]21 (some centres not stated)	78.9
CCN(CC)C(=O)c1ccc(Nc2nc(OCC3CCCCC3)c3[nH]cnc3n2)cc1	8.96
